From the NIST ThermoML archive (doi:10.1016/j.fluid.2018.08.012)
Several values for one entry are separate records, joined by “and”; a condition that tells them apart may be missing. Equal values may be shown once.

Test: mn = molality of the nth substance listed, in mol/kg
Conditions: Fluid (supercritical or subcritical phases), Vibrating tube method, m1 = 0.2392

O=S=O [sulfur dioxide] + O=C=O
Conditions	mass density
324.07 K, 2523.7 kPa	45.99 kg/m3
324.07 K, 2524.8 kPa	46.06 kg/m3
324.07 K, 5037.9 kPa	106.08 kg/m3
324.07 K, 5047.5 kPa	106.41 kg/m3
324.07 K, 7549.5 kPa	197.2 kg/m3
324.07 K, 7550.3 kPa	197.25 kg/m3
324.07 K, 10068 kPa	396.72 kg/m3
324.07 K, 10080 kPa	398.55 kg/m3
324.07 K, 12568 kPa	620.49 kg/m3 and 620.47 kg/m3
324.07 K, 15086 kPa	705.24 kg/m3
324.07 K, 15087 kPa	705.32 kg/m3
324.07 K, 17615 kPa	754.18 kg/m3
324.07 K, 20140 kPa	788.89 kg/m3 and 788.93 kg/m3
324.07 K, 22662 kPa	816.06 kg/m3
324.07 K, 22664 kPa	816.05 kg/m3
324.07 K, 25179 kPa	838.47 kg/m3
324.07 K, 25185 kPa	838.49 kg/m3
324.07 K, 27695 kPa	857.63 kg/m3
324.07 K, 27705 kPa	857.68 kg/m3
324.07 K, 30187 kPa	874.31 kg/m3
324.07 K, 30220 kPa	874.51 kg/m3
324.07 K, 32689 kPa	889.28 kg/m3
324.07 K, 32729 kPa	889.51 kg/m3
324.07 K, 35178 kPa	902.77 kg/m3
324.07 K, 35212 kPa	902.97 kg/m3
349.39 K, 2532.7 kPa	41.96 kg/m3
349.39 K, 2537.9 kPa	42.01 kg/m3
349.39 K, 5043.8 kPa	91.74 kg/m3
349.39 K, 5046.4 kPa	91.91 kg/m3
349.39 K, 7518.6 kPa	153.18 kg/m3
349.39 K, 7555.2 kPa	154.4 kg/m3
349.39 K, 10069 kPa	236.57 kg/m3
349.39 K, 10075 kPa	236.62 kg/m3
349.39 K, 12580 kPa	346.19 kg/m3
349.39 K, 12586 kPa	346.44 kg/m3
349.39 K, 15085 kPa	467.39 kg/m3
349.39 K, 15089 kPa	467.53 kg/m3
349.39 K, 17619 kPa	564.01 kg/m3
349.39 K, 17622 kPa	564.12 kg/m3
349.39 K, 20144 kPa	630.6 kg/m3
349.39 K, 20146 kPa	630.67 kg/m3
349.39 K, 22669 kPa	678.62 kg/m3
349.39 K, 22671 kPa	678.72 kg/m3
349.39 K, 25189 kPa	715.52 kg/m3
349.39 K, 25190 kPa	715.6 kg/m3
349.39 K, 27706 kPa	745.39 kg/m3
349.39 K, 27707 kPa	745.51 kg/m3
349.39 K, 30211 kPa	770.4 kg/m3
349.39 K, 30216 kPa	770.37 kg/m3
349.39 K, 32707 kPa	791.84 kg/m3
349.39 K, 32708 kPa	791.77 kg/m3
349.39 K, 35200 kPa	810.62 kg/m3
349.39 K, 35202 kPa	810.71 kg/m3
375.06 K, 2549.7 kPa	38.37 kg/m3
375.06 K, 2555.7 kPa	38.44 kg/m3
375.06 K, 5060.6 kPa	81.6 kg/m3
375.06 K, 5068.6 kPa	81.91 kg/m3
375.06 K, 7564.3 kPa	131.73 kg/m3
375.06 K, 7579.7 kPa	132.31 kg/m3
375.06 K, 10049 kPa	189.67 kg/m3
375.06 K, 10080 kPa	190.27 kg/m3
375.06 K, 12595 kPa	258.2 kg/m3
375.06 K, 12612 kPa	259 kg/m3
375.06 K, 15080 kPa	333.08 kg/m3
375.06 K, 15093 kPa	333.81 kg/m3
375.06 K, 17617 kPa	411.4 kg/m3
375.06 K, 17623 kPa	411.26 kg/m3
375.06 K, 20142 kPa	482.1 kg/m3
375.06 K, 20148 kPa	481.92 kg/m3
375.06 K, 22667 kPa	541.64 kg/m3
375.06 K, 22672 kPa	541.46 kg/m3
375.06 K, 25185 kPa	590.31 kg/m3
375.06 K, 25191 kPa	590.18 kg/m3
375.06 K, 27702 kPa	630.33 kg/m3
375.06 K, 27708 kPa	630.2 kg/m3
375.06 K, 30214 kPa	663.73 kg/m3
375.06 K, 30222 kPa	663.67 kg/m3
375.06 K, 32714 kPa	692.09 kg/m3
375.06 K, 32726 kPa	692.34 kg/m3
375.06 K, 35206 kPa	716.75 kg/m3
375.06 K, 35223 kPa	717.02 kg/m3
399.99 K, 2560.5 kPa	35.13 kg/m3
399.99 K, 2564.5 kPa	35.68 kg/m3
399.99 K, 5074.4 kPa	74.46 kg/m3
399.99 K, 5079.5 kPa	74.06 kg/m3
399.99 K, 7580.3 kPa	116.91 kg/m3
399.99 K, 7584.9 kPa	117.53 kg/m3
399.99 K, 10090 kPa	164.56 kg/m3
399.99 K, 10112 kPa	164.41 kg/m3
399.99 K, 12594 kPa	215.96 kg/m3
399.99 K, 12608 kPa	216.99 kg/m3
399.99 K, 15081 kPa	271.09 kg/m3
399.99 K, 15090 kPa	272.1 kg/m3
399.99 K, 17615 kPa	329.58 kg/m3
399.99 K, 17617 kPa	330.16 kg/m3
399.99 K, 20141 kPa	387.34 kg/m3 and 386.76 kg/m3
399.99 K, 22663 kPa	440.42 kg/m3
399.99 K, 22665 kPa	441.02 kg/m3
399.99 K, 25183 kPa	488.79 kg/m3
399.99 K, 25184 kPa	489.39 kg/m3
399.99 K, 27700 kPa	532.13 kg/m3
399.99 K, 27701 kPa	531.53 kg/m3
399.99 K, 30211 kPa	569.48 kg/m3
399.99 K, 30212 kPa	568.87 kg/m3
399.99 K, 32703 kPa	601.95 kg/m3
399.99 K, 32723 kPa	601.61 kg/m3
399.99 K, 35199 kPa	630.66 kg/m3
399.99 K, 35210 kPa	630.23 kg/m3
